We go through 1 compound from US11572590B2, “Methods for evaluating tumor cell spheroids using 3D microfluidic cell culture device” (Dana-Farber Cancer Institute, Inc., priority 2017, dated 2023).

Experiment in all cases: SelectScreen Kinase Profiling, single point inhibition and IC50 for off-target kinases
Common to all, as to assay type: biochemical

Assay [1] has as its target off-target kinases (Homo sapiens, UniProt P07332). The note with it: FES (FPS), ZLYTE, ATP Km app.
For assay [2], the target named is off-target kinases (Homo sapiens, UniProt Q86Z02). The note with it: HIPK1 (Myak), ZLYTE, ATP Km app.
For assay [3], the target named is off-target kinases (Homo sapiens, UniProt O60674). The conditions noted are these: ATP Km app, ZLYTE.
In assay [4] the target is T1, off-target kinases (Homo sapiens, UniProt Q8IVH8).
T1 sequence (Q8IVH8 1-894): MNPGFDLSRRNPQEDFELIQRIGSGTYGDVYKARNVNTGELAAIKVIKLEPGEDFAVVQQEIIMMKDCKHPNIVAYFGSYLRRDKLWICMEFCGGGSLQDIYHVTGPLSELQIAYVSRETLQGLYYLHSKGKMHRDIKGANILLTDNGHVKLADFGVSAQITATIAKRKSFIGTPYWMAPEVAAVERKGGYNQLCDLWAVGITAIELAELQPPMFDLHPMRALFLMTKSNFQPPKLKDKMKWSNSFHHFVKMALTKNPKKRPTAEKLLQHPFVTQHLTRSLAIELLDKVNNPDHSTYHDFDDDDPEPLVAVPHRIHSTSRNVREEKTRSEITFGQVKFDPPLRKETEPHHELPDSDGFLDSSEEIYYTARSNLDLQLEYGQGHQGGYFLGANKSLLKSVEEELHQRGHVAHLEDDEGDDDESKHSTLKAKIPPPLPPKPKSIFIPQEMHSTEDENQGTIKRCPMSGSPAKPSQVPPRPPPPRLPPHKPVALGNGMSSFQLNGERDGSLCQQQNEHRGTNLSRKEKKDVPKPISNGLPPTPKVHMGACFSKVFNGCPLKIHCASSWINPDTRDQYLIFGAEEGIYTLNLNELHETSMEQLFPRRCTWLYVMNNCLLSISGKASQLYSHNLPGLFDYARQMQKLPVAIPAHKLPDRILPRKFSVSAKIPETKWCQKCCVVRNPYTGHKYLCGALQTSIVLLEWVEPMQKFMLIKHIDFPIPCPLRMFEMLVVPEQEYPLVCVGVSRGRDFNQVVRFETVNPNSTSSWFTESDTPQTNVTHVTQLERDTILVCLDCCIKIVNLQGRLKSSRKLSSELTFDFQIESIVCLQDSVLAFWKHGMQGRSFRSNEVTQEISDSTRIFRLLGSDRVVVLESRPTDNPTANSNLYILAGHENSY
The conditions noted are these: MAP4K3 (GLK), LanthaScreen Binding. Background: TR-FRET usually uses a lanthanide donor and a delayed reading to cut background.

Like-named read-outs stand apart in the source and are kept apart here.

Chain of off-target kinases (Homo sapiens, UniProt Q86Z02) (Q86Z02 whole entry): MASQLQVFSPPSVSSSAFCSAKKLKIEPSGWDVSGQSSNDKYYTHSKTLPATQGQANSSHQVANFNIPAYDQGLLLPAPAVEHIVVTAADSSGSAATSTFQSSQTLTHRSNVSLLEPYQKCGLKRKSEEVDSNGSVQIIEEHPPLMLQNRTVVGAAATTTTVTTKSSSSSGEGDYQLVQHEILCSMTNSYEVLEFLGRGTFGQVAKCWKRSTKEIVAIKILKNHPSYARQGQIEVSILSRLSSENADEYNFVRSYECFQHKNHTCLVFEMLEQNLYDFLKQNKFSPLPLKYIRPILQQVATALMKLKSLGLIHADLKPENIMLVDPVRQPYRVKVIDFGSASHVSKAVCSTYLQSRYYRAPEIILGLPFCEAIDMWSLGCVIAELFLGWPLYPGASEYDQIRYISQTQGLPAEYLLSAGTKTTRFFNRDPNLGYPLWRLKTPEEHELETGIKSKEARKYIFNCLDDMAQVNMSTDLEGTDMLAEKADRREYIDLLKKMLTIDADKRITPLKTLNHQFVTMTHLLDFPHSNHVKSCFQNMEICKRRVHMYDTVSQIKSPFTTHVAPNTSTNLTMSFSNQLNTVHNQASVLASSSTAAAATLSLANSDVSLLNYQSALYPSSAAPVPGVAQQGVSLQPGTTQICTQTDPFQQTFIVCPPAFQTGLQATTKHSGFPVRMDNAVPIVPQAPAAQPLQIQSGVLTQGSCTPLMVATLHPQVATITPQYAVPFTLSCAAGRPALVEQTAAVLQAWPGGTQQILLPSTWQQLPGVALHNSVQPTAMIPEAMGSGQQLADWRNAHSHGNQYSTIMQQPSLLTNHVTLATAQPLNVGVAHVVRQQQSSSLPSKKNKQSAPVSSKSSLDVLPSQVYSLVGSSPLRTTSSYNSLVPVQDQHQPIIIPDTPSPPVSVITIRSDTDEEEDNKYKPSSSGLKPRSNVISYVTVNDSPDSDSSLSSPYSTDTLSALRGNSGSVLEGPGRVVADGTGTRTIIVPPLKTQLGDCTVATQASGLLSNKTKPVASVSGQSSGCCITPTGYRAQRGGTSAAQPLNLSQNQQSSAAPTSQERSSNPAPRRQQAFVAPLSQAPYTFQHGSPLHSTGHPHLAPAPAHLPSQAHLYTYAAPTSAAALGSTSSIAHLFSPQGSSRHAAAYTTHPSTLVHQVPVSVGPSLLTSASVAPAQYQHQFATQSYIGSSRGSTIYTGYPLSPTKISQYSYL
Chain of off-target kinases (Homo sapiens, UniProt P07332) (P07332 whole entry): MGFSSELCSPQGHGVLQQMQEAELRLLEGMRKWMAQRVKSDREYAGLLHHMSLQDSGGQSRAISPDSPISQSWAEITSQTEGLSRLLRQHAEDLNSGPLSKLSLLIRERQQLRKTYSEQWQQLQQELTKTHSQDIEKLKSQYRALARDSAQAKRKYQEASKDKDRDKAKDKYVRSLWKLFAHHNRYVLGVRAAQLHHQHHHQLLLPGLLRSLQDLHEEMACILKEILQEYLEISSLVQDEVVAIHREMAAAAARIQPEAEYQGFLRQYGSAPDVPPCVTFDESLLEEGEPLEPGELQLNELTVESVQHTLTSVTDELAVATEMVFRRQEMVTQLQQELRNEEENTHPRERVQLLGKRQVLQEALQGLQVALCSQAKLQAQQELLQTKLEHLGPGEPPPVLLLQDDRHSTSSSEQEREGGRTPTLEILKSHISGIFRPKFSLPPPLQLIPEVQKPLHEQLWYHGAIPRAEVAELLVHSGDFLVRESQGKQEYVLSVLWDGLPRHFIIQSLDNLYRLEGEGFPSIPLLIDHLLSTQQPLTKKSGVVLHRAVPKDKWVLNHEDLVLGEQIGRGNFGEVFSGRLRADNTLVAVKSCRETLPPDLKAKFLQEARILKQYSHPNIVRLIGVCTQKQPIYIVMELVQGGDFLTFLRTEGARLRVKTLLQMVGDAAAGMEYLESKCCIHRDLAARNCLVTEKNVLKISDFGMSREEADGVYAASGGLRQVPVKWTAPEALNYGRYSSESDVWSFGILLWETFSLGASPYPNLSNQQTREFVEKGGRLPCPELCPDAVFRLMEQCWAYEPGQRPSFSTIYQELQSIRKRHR
Chain of off-target kinases (Homo sapiens, UniProt O60674) (O60674 whole entry): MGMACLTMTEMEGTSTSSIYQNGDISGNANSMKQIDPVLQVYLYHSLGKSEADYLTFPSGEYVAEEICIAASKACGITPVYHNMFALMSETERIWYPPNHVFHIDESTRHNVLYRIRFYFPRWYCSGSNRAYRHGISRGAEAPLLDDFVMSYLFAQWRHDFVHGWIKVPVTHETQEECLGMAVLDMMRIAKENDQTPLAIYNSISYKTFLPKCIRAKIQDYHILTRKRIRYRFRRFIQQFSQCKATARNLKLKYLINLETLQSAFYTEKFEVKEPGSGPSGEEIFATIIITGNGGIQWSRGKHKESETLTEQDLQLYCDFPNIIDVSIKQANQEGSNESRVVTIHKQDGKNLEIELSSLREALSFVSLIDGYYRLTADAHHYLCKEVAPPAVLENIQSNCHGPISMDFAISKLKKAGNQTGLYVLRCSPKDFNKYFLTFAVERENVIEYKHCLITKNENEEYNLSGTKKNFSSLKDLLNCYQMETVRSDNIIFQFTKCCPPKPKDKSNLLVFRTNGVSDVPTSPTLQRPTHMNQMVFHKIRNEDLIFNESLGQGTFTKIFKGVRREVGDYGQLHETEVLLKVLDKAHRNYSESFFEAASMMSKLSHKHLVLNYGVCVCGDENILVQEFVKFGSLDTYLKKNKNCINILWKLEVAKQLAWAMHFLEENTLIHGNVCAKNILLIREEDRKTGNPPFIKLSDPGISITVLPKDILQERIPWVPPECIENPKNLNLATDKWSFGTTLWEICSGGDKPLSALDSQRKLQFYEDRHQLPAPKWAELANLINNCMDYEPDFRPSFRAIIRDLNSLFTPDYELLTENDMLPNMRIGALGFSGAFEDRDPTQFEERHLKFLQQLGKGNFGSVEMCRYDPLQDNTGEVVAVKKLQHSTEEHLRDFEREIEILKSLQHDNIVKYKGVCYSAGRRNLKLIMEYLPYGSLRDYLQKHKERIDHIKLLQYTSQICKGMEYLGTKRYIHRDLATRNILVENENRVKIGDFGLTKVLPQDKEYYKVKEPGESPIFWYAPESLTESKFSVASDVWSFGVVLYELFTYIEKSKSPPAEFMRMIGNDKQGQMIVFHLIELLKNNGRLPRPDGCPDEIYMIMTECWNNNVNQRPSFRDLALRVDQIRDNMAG

For the compound `N#Cc1cc(-c2ncnc(Nc3ccc(N4CCN(C5COC5)CC4)cc3)n2)ccc1OC1CCOCC1` [Compound 1, 5-(4-((4-(4-(oxetan-3-yl)piperazin-1-yl)phenyl)amino)-1,3,5-triazin-2-yl)-2-((tetrahydro-2H-pyran-4-yl)oxy)benzonitrile], the inhibition (usually the percentage by which the read-out fell short of the control) stood at 9% on off-target kinases [1] (read-out: % Inhibition 1); 7% on off-target kinases [1] (read-out: % Inhibition 2); 8% on off-target kinases [1] (read-out: % Inhibition Avg); 11% at off-target kinases [2] (read-out: % Inhibition 1); 13% at off-target kinases [2] (read-out: % Inhibition 2); 12% on off-target kinases [2] (read-out: % Inhibition Avg). In addition, the inhibition at off-target kinases [3] (JAK2, read-out: % Inhibition 1) turned out to be 67%; on off-target kinases [3] (JAK2, read-out: % Inhibition 2), 68%; on off-target kinases [3] (JAK2, read-out: % Inhibition Avg), 67%; at off-target kinases [3] (JAK2 JH1 JH2, read-out: % Inhibition 1), 46%; on off-target kinases [3] (JAK2 JH1 JH2, read-out: % Inhibition 2), 47%; on off-target kinases [3] (JAK2 JH1 JH2, read-out: % Inhibition Avg), 46%. Further, the results for the inhibition at off-target kinases [4] (read-out: % Inhibition 1), on off-target kinases [4] (read-out: % Inhibition 2) and on off-target kinases [4] (read-out: % Inhibition Avg) were 16%, 21% and 18%, respectively.
